Data set [1] has as its system A549. As to the kind of experiment: MTT cell survival assay, A549. The note with it: Homo sapiens. In kind it is cell-based. How it is done:
(§1) The NCI anti-cancer drug screen model was adopted to test anti-cancer effect of the exemplary compounds from Example 1. The isolated compound 1 from Example 1 was added into the culture media of human lung-cancer cells, A549, NCI-H460, CL1-0, CL1-5 or DMS 114, to test for tumor cell survival (either by MTT assay or colony formation assay). Compounds 4, 5, 6, and 7 were used in MTT assay against A549.
(§2) A549, CL1-0, and CL1-5 cells are human lung adenocarcinoma cell lines. CL1-0 cells are minimally invasive sub-lines with low migration. CL1-5 cell line, on the other hand, is highly invasive with high migration ability. The NCI-H460 cell line is derived from human large cell lung cancer, which is one of the major types of non-small cell lung carcinoma. DMS 114 is small cell lung cancer cell line, and was obtained from the American Type Culture Collection (Manassas, Va.).
MTT assay is commonly used to determine cell proliferation, percent of viable cells, and cytotoxicity. MTT (3-[4,5-dimethylthiazol-2-yl]2,5-diphenyltetrazolium bromide) is a yellow dye, which can be absorbed by the living cells and be reduced to purplish blue formazan crystals by succinate tetrazolium reductase in mitochondria. Formazan formation can therefore be used to assess and determine the survival rate of cells.
A549, NCI-H460, CL1-0, CL1-5 and DMS 114 cells were suspended and cultured in 10% fetal bovine serum (Life Technologies Inc.) containing RPM1-1640 culture medium that also includes 1% penicillin and 1% streptomycin. Human bronchial epithelium cell line, BEAS-2B was used as a control. The BEAS-2B cell line was cultured in LHC-9 serum-free medium. All these cell lines were incubated under 5% CO2, 37° C. for 24 hours. After cell proliferation, the cells were washed once with PBS, treated with the trypsin-EDTA, and then centrifuged at 1,200 rpm for 5 minutes to separate cells from supernatant. The cells were re-suspended in fresh culture medium (10 mL) and placed in 96 well plates.
To each of the 96 well plates containing A549, NCI-H460, CL1-0, CL1-5, DMS 114 or BEAS-2B, 0.03, 0.1, 0.3, 1 and 3 μg/ml of compound 1 were add. The 96 well plates were incubated at 37° C., 5% CO2 for 48 hours. Subsequently, in the dark environment to each well of the plates were added 2.5 mg/ml of MTT. The reaction was terminated by addition of 100 ul of lysis buffer after 4 hours. The survival rate of cells was calculated based on the measurement of absorption at the 570 nm wavelength by enzyme immunoassay analyzer.
(In general: Tetrazolium assays rely on reduction of a dye to a coloured formazan, in cell work by metabolically active cells.)

In data set [2] the test system is DMS 114. As to the kind of experiment: MTT cell survival assay, DMS 114. In kind it is cell-based. The note with it: Homo sapiens, 48 hours, read-out: IC50 against DMS 114. How it is done:
as §1, §2
(§3) MTT assay is commonly used to determine cell proliferation, percent of viable cells, and cytotoxicity. […]
(§4) To each of the 96 well plates containing A549, NCI-H460, CL1-0, CL1-5, DMS 114 or BEAS-2B, 0.03, 0.1, 0.3, 1 and 3 μg/ml of compound 1 were add. […] The survival rate of cells was calculated based on the measurement of absorption at the 570 nm wavelength by enzyme immunoassay analyzer.

The nature of data set [3]: Drug distribution in organs analysis (LC/MS/MS). The format is in vivo, CD-1 male mice. The note with it: CD-1 mice, iv 2 mg/Kg, 0.25-4 hours, plasma, kidney, small and large intestine. As to the method: Experiments described herein were performed on CD-1 male mice (average weight 24±2 grams, provided by BioLasco, Taiwan). The mice were injected intravenously with a solution of compound 1 in 5% ethanol and 30% PEG400 (2 mg/Kg body weight). After 0.25, 0.5, 1, 2, 4 hours of the iv injection, 0.5 ml of blood was collected via cardiac puncture. The bloods were placed in a centrifuge tube containing K-EDTA and centrifuged for 15 min at 4° C. under 1500 g to produce supernatants (plasma sample). At the same time points, lung, kidney, small intestine and large intestine of the mice were collected and preserved at −70° C. for similar analysis.
The concentration of compound 1 in various organ samples (i.e., plasma, large intestine, left kidney, lung, right kidney and small intestine) were analyzed by LC/MS/MS spectrometer (Waters Alliance 2790 LC and Micromass Quattro Ultima). For example, plasma sample was mixed with acetonitrile and then centrifuged to prepare supernatant that was analyzed by LC/MS/MS. The pharmacokinetic parameters were obtained by WinNonlin™ software by non-compartment method.

Data set [4] has as its system NCI-H460. The experiment in a line: MTT cell survival assay, NCI-H460. The note with it: Homo sapiens, 48 hours, read-out: IC50 (μg/ml), in vitro cell survival rate test, NCI-H460. In kind it is cell-based. How it is done:
as §1, §2, §3, §4

The mark [5] stands for this setting: 48 hours, read-out: IC50 (μg/ml), in vitro cell survival rate test, A549.

Converted amounts (≈) assume the structure as drawn. Read-outs that look alike come from different tables or passages of the source.

Regarding `COC1=C(O)C(O)C(C/C=C(\C)CC/C=C(\C)CCC=C(C)C)C(C)C1=O` (stereo not drawn) [Compound 4, 3,4-dihydroxy-2-methoxy-6-methyl-5-(3,7,11-trimethyldodeca-2,6,10-trienyl)cyclohex-2-enone], the IC50 in data set [1] (setting [5]) turned out to be 3.24 µg/mL.
Regarding `COC1=C(OC)C(O)C(C/C=C(\C)CC/C=C(\C)CCCC(C)(C)OC)C(C)C1=O` (stereo not drawn) [Compound 7, 4-hydroxy-2,3-dimethoxy-5-(11-methoxy-3,7,11-trimethyldodeca-2,6-dienyl)-6-methylcyclohex-2-enone], the IC50 in data set [1] (setting [5]) amounted to 10.5 µg/mL.
With `COC1=C(OC)C(O)C(C/C=C(\C)CC/C=C(\C)CCC=C(C)C)C(C)C1=O` (stereo not drawn) [Compound 1, 4-hydroxy-2,3-dimethoxy-6-methyl-5-(3,7,11-trimethyldodeca-2,6,10-trienyl)cyclohex-2-enone], the figures for the IC50 in data set [2], in data set [4] and in data set [1] (setting [5]) were 16 µM, 0.82 µg/mL (≈ 2.1 µM) and 0.45 µg/mL, respectively. Moreover, the “Concentration in lung versus other organs (FIG. 10)” value in data set [3] is listed as “significantly higher concentration than other organs”.
Regarding `COC1=C(OC)C(O)C(C/C=C(\C)CC/C=C(\C)CCCC(C)(C)O)C(C)C1=O` (stereo not drawn) [Compound 5, 4-hydroxy-5-(11-hydroxy-3,7,11-trimethyldodeca-2,6-dienyl)-2,3-dimethoxy-6-methylcyclohex-2-enone], the IC50 in data set [1] (setting [5]) came out at 13.5 µg/mL.
With `COC1=C(OC)C(O)C(C/C=C(\C)CCC(=O)O)C(C)C1=O` (stereo not drawn) [Compound 6], the IC50 amounted to 28 µg/mL in data set [1] (setting [5]) and 28 µM in data set [1] (read-out: IC50 on A549 (text)).

For the origin of these results see patent US8309611B2, “Methods and compositions for treating lung cancer” (Golden Biotechnology Corporation, priority 2011, dated 2012).
